Experimental findings from the NIST ThermoML archive (doi:10.1016/j.jct.2011.02.003) are described below.

± gives the expanded uncertainty stated by the source.

Data set [1] can be described thus: Molar enthalpy of transition or fusion. Particulars: Crystal; DSC.
For data set [2] the following is noted: Crystal; DTA.

In the case of `Nc1ccccc1O` [2-hydroxybenzenamine], the “Molar enthalpy of transition or fusion” value in data set [1] is 6.39 ± 1.91 kcal/mol. Besides, in data set [2], the Normal melting temperature is 175.57 ± 0.93 °C.

`C[C@]12CCC(=O)C=C1CC[C@@H]1[C@@H]2CC[C@@]2(C)[C@H]1CC[C@]2(C)O` [17-methyltestosterone]: in data set [1], the “Molar enthalpy of transition or fusion” value was determined as 5.98 ± 1.79 kcal/mol. Moreover, the Normal melting temperature in data set [2] is 164.19 ± 0.71 °C.
